This passage reports remaining activity and Ki results from patent publication US8835440B2, “Cyclic pyrimidin-4-carboxamides as CCR2 receptor antagonists for treatment of inflammation, asthma and COPD” (Boehringer Ingelheim International GmbH, priority 2008, dated 2014).

This experiment addresses T1, CCR2 (Homo sapiens, UniProt P41597).
T1 construct: Membranes were prepared from THP-1 cells; endogenous in cells; host or cells: THP-1 cells (membrane preparation)
T1 sequence (P41597 1-360 isoform P41597-2): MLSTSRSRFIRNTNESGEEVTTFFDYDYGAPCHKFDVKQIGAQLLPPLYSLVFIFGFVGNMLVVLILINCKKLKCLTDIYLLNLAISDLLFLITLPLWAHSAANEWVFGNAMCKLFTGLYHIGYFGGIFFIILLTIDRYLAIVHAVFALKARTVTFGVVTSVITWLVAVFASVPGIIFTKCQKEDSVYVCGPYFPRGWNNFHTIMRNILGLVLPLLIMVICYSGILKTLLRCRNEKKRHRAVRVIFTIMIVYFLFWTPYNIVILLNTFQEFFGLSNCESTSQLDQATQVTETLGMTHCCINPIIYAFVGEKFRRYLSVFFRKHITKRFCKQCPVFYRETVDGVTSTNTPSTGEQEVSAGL
Nature of the experiment: CCR2 receptor membrane binding assay ([125I]MCP-1, THP-1 cell membranes, SPA beads). The conditions noted are these: for remaining activity at 10 µM: @ 10 μM test compound, THP-1 membranes, read-out: CCR2 % ctrl @ 10 μM; for Ki: dissociation constant hKi, [125I]MCP-1 binding to THP-1 membranes. The procedure, abridged:
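hKi was derived by iterative law-of-mass-action fitting of scintillation counts read at 8 h. Compound (1% DMSO final) competed with ca. 25000 cpm [125I]MCP-1 for THP-1 membranes bound to WGA-PVT beads. Buffer: 25 mM HEPES pH 7.2, 5 mM MgCl2, 0.5 mM CaCl2, 0.2% BSA.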

The Ki is a measure of affinity in units of concentration, obtained from inhibition or displacement. Turning to `Cc1nc(NCC2Cc3ccccc3C2)c(C)c(C(=O)N2CCC(N3CCC(N(C)S(C)(=O)=O)CC3)CC2)n1` [Example 86], the remaining activity at 10 µM was determined as 3% and the affinity, expressed as Ki, was 39 nM.

On to `Cc1c(NCc2ccc(C(F)(F)F)c(Cl)c2)ncnc1C(=O)N1CCC(N2CCC(N(C)S(C)(=O)=O)CC2)CC1` [Example 62], for which the remaining activity at 10 µM is 3% and affinity was put at a Ki of 38 nM.

Regarding `Cc1c(NCc2ccc(C(C)(C)C)cc2)ncnc1C(=O)N1CCC(N2CCC(N(C)S(C)(=O)=O)CC2)CC1` [Example 1], the remaining activity at 10 µM amounted to 1% and the Ki is 32 nM.

Regarding `Cc1c(NCC2CCN(c3ccccc3)CC2)ncnc1C(=O)N1CCC(N2CCC(N(C)S(C)(=O)=O)CC2)CC1` [Example 58], the remaining activity at 10 µM stood at 12% and the affinity corresponds to a Ki of 336 nM.

Consider `Cc1c(NCC2CCCN(c3ccc(C#N)c(Cl)c3)C2)ncnc1C(=O)N1CCC(N2CCC(N(C)S(C)(=O)=O)CC2)CC1` (stereo not drawn) [Example 154], for which the remaining activity at 10 µM is 15% and the Ki came out at 123 nM.

For `Cc1c(NCc2ccc(Cl)c(Cl)c2)ncnc1C(=O)N1CCC(N2CCC(N(C)S(C)(=O)=O)CC2)CC1` [Example 255], the remaining activity at 10 µM is 5% and the Ki was found to be 33 nM.

`Cc1ccc(CNc2ncnc(C(=O)N3CCC(N4CCC(N(C)S(C)(=O)=O)CC4)CC3)c2C)cc1Cl` [Example 59]: the remaining activity at 10 µM was 5% and the Ki is 55 nM.

For the compound `Cc1c(NC[C@H]2CCN(c3ccccc3)C2)ncnc1C(=O)N1CCC(N2CCC(N(C)S(C)(=O)=O)CC2)CC1` [Example 156], the remaining activity at 10 µM turned out to be 8% and the affinity, expressed as Ki, was 18 nM.

`Cc1c(NCC2CCC(c3ccc(Cl)cc3)C2)ncnc1C(=O)N1CCC(N2CCC(N(C)S(C)(=O)=O)CC2)CC1` (stereo not drawn) [Example 159c]: affinity was put at a Ki of 13 nM.

On to `Cc1c(CCc2ccc(C(C)(C)C)cc2)ncnc1C(=O)N1CCC(N2CCC(N(C)S(C)(=O)=O)CC2)CC1` [Example 272], for which the remaining activity at 10 µM was 8% and the inhibitory constant (Ki) was determined as 155 nM.

As for `COCCN(C)C1CCN(C(=O)c2ncnc(NCc3ccc(Cl)c(Cl)c3)c2C)CC1` [Example 181], the remaining activity at 10 µM was 58% and the affinity, expressed as Ki, was 3610 nM.

With `Cc1c(NC2COc3ccccc3C2)ncnc1C(=O)N1CCC(N2CCC(O)CC2)CC1` (stereo not drawn) [Example 24], the remaining activity at 10 µM was 58% and the inhibition constant Ki was 4030 nM.

For the compound `COC1CC(F)(F)CCC1NC1CCN(C(=O)c2ncnc(NCc3ccc(C(C)(C)C)cc3)c2C)CC1` (stereo not drawn) [Example 228g], the remaining activity at 10 µM was determined as 6% and the inhibition constant Ki turned out to be 169 nM.

`Cc1c(NCC2CCCC(c3ccc(F)cc3)C2)ncnc1C(=O)N1CCC(N2CCC(NS(C)(=O)=O)CC2)CC1` (stereo not drawn) [Example 159ba] showed an inhibitory constant (Ki) of 11 nM.

`CO[C@@H]1COCC[C@@H]1NC1CCN(C(=O)c2ncnc(NCc3ccc(C(C)(C)C)cc3)c2C)CC1` [Example 228ga] came in with a Ki of 23 nM.

Consider `Cc1c(NCc2cccc(Cl)c2)ncnc1C(=O)N1CCC(N2CCC(N(C)S(C)(=O)=O)CC2)CC1` [Example 66], for which the remaining activity at 10 µM was found to be 8% and the affinity, expressed as Ki, was 138 nM.

As to `Cc1c(NCc2ccc(Cl)c(Cl)c2)ncnc1C(=O)N1CCC(N2CCC(O)CC2)CC1` [Example 109], the remaining activity at 10 µM stood at 11% and affinity was put at a Ki of 213 nM.

`CCC1CCC(CNc2ncnc(C(=O)N3CCC(N4CCC(N(C)S(C)(=O)=O)CC4)CC3)c2C)CC1` (stereo not drawn) [Example 159k] showed an inhibition constant (Ki) of 22 nM.

Turning to `Cc1ccc(CNc2ncnc(C(=O)N3CCC(N4CCC(O)CC4)CC3)c2C)cc1Cl` [Example 30], the remaining activity at 10 µM was found to be 18% and the Ki was found to be 446 nM.

Turning to `CC(=O)N(C)C1CCN(C2CCN(C(=O)c3ncnc(NCc4ccc(Cl)c(Cl)c4)c3C)CC2)CC1` [Example 194], the remaining activity at 10 µM stood at 25% and the inhibition constant (Ki) stood at 491 nM.

`Cc1c(NCC2CCC(C(C)(C)C)CC2)ncnc1C(=O)N1CCC(N2CCC(N(C)S(C)(=O)=O)CC2)CC1` (stereo not drawn) [Example 159o] showed an inhibition constant Ki of 12 nM.

For `Cc1c(NCC2Cc3ccccc3C2)ncnc1C(=O)N1CCC(N2CCC(N(C)S(C)(=O)=O)CC2)CC1` [Example 61], the remaining activity at 10 µM is 2% and the inhibition constant Ki turned out to be 46 nM.

In turn, `Cc1c(NCC2CN(c3ccccc3)CCO2)ncnc1C(=O)N1CCC(N2CCC(N(C)S(C)(=O)=O)CC2)CC1` (stereo not drawn) [Example 159s] came in with a Ki of 1310 nM.

Regarding `Cc1c(NCC2COc3ccccc3C2)ncnc1C(=O)N1CCC(N2CCOCC2)CC1` (stereo not drawn) [Example 50], the remaining activity at 10 µM is 22% and the inhibition constant Ki turned out to be 928 nM.

For `Cc1c(NCc2ccc(-c3ccccc3)o2)ncnc1C(=O)N1CCC(N2CCC(N(C)S(C)(=O)=O)CC2)CC1` [Example 159u], the Ki stood at 29 nM.

For `Cc1c(NCCc2ccc(Cl)c(Cl)c2)ncnc1C(=O)N1CCC(N2CCC(F)CC2)CC1` [Example 167], the remaining activity at 10 µM came out at 16% and the affinity, expressed as Ki, was 246 nM.

Compound `Cc1c(NCc2ccc(C(C)(C)C)cc2)ncnc1C(=O)N1CCC(NCC2CCCCO2)CC1` (stereo not drawn) [Example 228gh] displayed a Ki of 4070 nM.

`Cc1c(NCc2ccc(-c3ccccc3)cc2)ncnc1C(=O)N1CCC(N2CCC(O)CC2)CC1` [Example 101]: the remaining activity at 10 µM was determined as 35% and the inhibitory constant (Ki) came out at 986 nM.

Regarding `Cc1nc(NC2CCCC(c3ccccc3)C2)c(C)c(C(=O)N2CCC(N3CCC(NS(C)(=O)=O)CC3)CC2)n1` (stereo not drawn) [Example 89], the remaining activity at 10 µM came out at 29% and the affinity, expressed as Ki, was 770 nM.

With `COc1nc(NCC2CCCC(c3ccccc3)C2)c(C)c(C(=O)N2CCC(N3CCC(N(C)S(C)(=O)=O)CC3)CC2)n1` (stereo not drawn) [Example 159a], the Ki worked out at 10 nM.

Take `Cc1c(NCc2cccc(-c3ccccc3)c2)ncnc1C(=O)N1CCC(N2CCOC(C)C2)CC1` (stereo not drawn) [Example 234]: the remaining activity at 10 µM stood at 19% and the inhibitory constant (Ki) amounted to 401 nM.

For the compound `Cc1c(NCCc2ccc(Cl)c(Cl)c2)ncnc1C(=O)N1CCC(N2CCOCC2)CC1` [Example 279], the remaining activity at 10 µM came out at 9% and the inhibitory constant (Ki) is 192 nM.

Regarding `Cc1c(NCc2ccc(OC(F)(F)F)cc2)ncnc1C(=O)N1CCC(N2CCC(O)CC2)CC1` [Example 5], the remaining activity at 10 µM was 26% and the inhibition constant (Ki) worked out at 616 nM.

Turning to `CNC(=O)C1CCN(C2CCN(C(=O)c3ncnc(NCc4ccc(Cl)c(Cl)c4)c3C)CC2)CC1` [Example 186], the remaining activity at 10 µM came to 8% and affinity was put at a Ki of 78 nM.

With `Cc1c(NCCc2ccc(Cl)c(Cl)c2)ncnc1C(=O)N1CCC(N2CCOC(C)C2)CC1` (stereo not drawn) [Example 237], the remaining activity at 10 µM amounted to 9% and the affinity, expressed as Ki, was 133 nM.

With `Cc1nc(NCC2CCC(c3cccc(C(F)(F)F)c3)O2)c(C)c(C(=O)N2CCC(N3CCC(N(C)S(C)(=O)=O)CC3)CC2)n1` (stereo not drawn) [Example 159qa], the affinity corresponds to a Ki of 19 nM.

With `Cc1c(NC[C@@H]2CC[C@@H](c3ccc(C(F)(F)F)cc3)O2)ncnc1C(=O)N1CCC(N2CCC(N(C)S(C)(=O)=O)CC2)CC1` [Example 159ma], the affinity, expressed as Ki, was 20 nM.

For `Cc1c(NCc2cccc(Cl)c2)ncnc1C(=O)N1CCC(N2CCC(O)CC2)CC1` [Example 123], the remaining activity at 10 µM is 26% and the Ki is 542 nM.

In the case of `Cc1c(NCC2CCN(c3ccccc3)CC2)ncnc1C(=O)N1CCC(N2CCCCC2)CC1` [Example 130], the remaining activity at 10 µM worked out at 50% and the inhibitory constant (Ki) stood at 4270 nM.

In turn, `Cc1c(NCC2CCCC(c3ccc(Cl)cc3)C2)ncnc1C(=O)N1CCC(N2CCC(NS(C)(=O)=O)CC2)CC1` (stereo not drawn) [Example 159ca] displayed a Ki of 3 nM.

Regarding `Cc1c(NCc2cccc(-c3ccccc3)c2)ncnc1C(=O)N1CCC(N2CCC(O)CC2)CC1` [Example 102], the remaining activity at 10 µM was determined as 15% and the Ki came out at 224 nM.

Take `CCS(=O)(=O)N(C)C1CCN(C2CCN(C(=O)c3ncnc(NCc4ccc(C(F)(F)F)c(Cl)c4)c3C)CC2)CC1` [Example 33]: the remaining activity at 10 µM came to 0% and affinity was put at a Ki of 22 nM.

For `CO[C@@H]1COCC[C@H]1NC1CCN(C(=O)c2ncnc(NCc3ccc(C(C)(C)C)cc3)c2C)CC1` [Example 228gn], the Ki was 333 nM.

On to `Cc1c(NCCc2ccc(C(C)(C)C)cc2)ncnc1C(=O)N1CCC(N2CCC(O)CC2)CC1` [Example 112], for which the remaining activity at 10 µM stood at 21% and affinity was put at a Ki of 378 nM.

On to `Cc1c(NCc2cccc(-c3ccccc3)c2)cccc1C(=O)N1CCC(N2CCC(O)CC2)CC1` [Example 283], for which the remaining activity at 10 µM came out at 48% and the inhibition constant Ki came out at 4420 nM.

`COc1nc(OCc2ccc(C(C)(C)C)cc2)c(C)c(C(=O)N2CCC(N3CCC(N(C)S(C)(=O)=O)CC3)CC2)n1` [Example 301] displayed a Ki of 22 nM.

Consider `CC(=O)N1CCN(C2CCN(C(=O)c3ncnc(NCCc4ccc(Cl)c(Cl)c4)c3C)CC2)CC1` [Example 230], for which the remaining activity at 10 µM was 45% and the Ki is 1840 nM.

In the case of `Cc1c(NCC2CCCC(c3ccccc3)C2)ncnc1C(=O)N1CCC(N2CCC(O)CC2)CC1` (stereo not drawn) [Example 114], the remaining activity at 10 µM was determined as 8% and the inhibition constant (Ki) was 62 nM.

With `Cc1c(NCC2CCN(c3ccccc3)C2)ncnc1C(=O)N1CCC(N2CCOCC2)CC1` (stereo not drawn) [Example 51], the remaining activity at 10 µM turned out to be 13% and the inhibition constant Ki amounted to 290 nM.
